5 compounds from ChEMBL document CHEMBL1201862, “PubChem BioAssay data set” (2004) can be followed below.

Assay type in all cases: functional
The target of experiment [1] is Tyrosine-protein kinase JAK2 (Homo sapiens, UniProt O60674).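 Also: JAK2 tested as one member of a kinase panel.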
For experiment [2], the target named is Protein kinase C zeta type (Homo sapiens, UniProt Q05513).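 Also: measured as one member of a broad kinase profiling panel.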
The target in experiment [3] is cGMP-dependent protein kinase 1 (Homo sapiens, UniProt Q13976).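 Also: value from a kinome panel screen with PRKG1 as the panel member.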
The target of experiment [4] is Protein kinase C delta type (Homo sapiens, UniProt Q05655).
The target in experiment [5] is Serine/threonine-protein kinase D2 (Homo sapiens, UniProt Q9BZL6).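 Also: measured against PRKD2 as one member of a kinome-wide kinase profiling panel.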
Experiment [6] has as its target Ribosomal protein S6 kinase beta-1 (Homo sapiens, UniProt P23443).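 Also: measured as one member of a kinome-wide profiling panel.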
A further experiment concerns the target SRSF protein kinase 1 (Homo sapiens, UniProt Q96SB4).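 Also: measured as one member of a kinome-wide kinase profiling panel.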
The target of experiment [7] is Mast/stem cell growth factor receptor Kit (Homo sapiens, UniProt P10721).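 Also: KIT entry within a kinase panel assay.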
Experiment [8] deals with Casein kinase II subunit alpha (Homo sapiens, UniProt P68400).
Experiment [9] has as its target Serine/threonine-protein kinase PAK 4 (Homo sapiens, UniProt O96013).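 Also: value obtained within a kinome profiling panel in which PAK4 was one of the panel members.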
Experiment [10] addresses Casein kinase I isoform gamma-1 (Homo sapiens, UniProt Q9HCP0).
Experiment [11] deals with Tyrosine-protein kinase ITK/TSK (Homo sapiens, UniProt Q08881).
The target of experiment [12] is MAP/microtubule affinity-regulating kinase 3 (Homo sapiens, UniProt P27448).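 Also: MARK3 affinity measured as one member of a kinome panel.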
Experiment [13] deals with Protein kinase C gamma type (Homo sapiens, UniProt P05129).
The target in experiment [14] is Tyrosine-protein kinase Srms (Homo sapiens, UniProt Q9H3Y6).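 Also: SRMS measured as one member of a kinome-wide kinase profiling panel.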
Experiment [15] has as its target Receptor-type tyrosine-protein kinase FLT3 (Homo sapiens, UniProt P36888).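 Also: FLT3 was tested as one member of a kinome-wide kinase panel.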
Experiment [16] deals with MAP kinase-activated protein kinase 3 (Homo sapiens, UniProt Q16644).
Experiment [17] addresses Insulin-like growth factor 1 receptor (Homo sapiens, UniProt P08069). In words: Navigating the Kinome. Panel member name: IGF1R.
In experiment [18] the target is Serine/threonine-protein kinase Nek4 (Homo sapiens, UniProt P51957).
Experiment [19] concerns the target Maternal embryonic leucine zipper kinase (Homo sapiens, UniProt Q14680).
Experiment [20] concerns the target Tyrosine-protein kinase Fyn (Homo sapiens, UniProt P06241).
The target of experiment [21] is Homeodomain-interacting protein kinase 4 (Homo sapiens, UniProt Q8NE63).
Experiment [22] deals with 3-phosphoinositide-dependent protein kinase 1 (Homo sapiens, UniProt O15530).
Experiment [23] has as its target Serine/threonine-protein kinase DCLK1 (Homo sapiens, UniProt O15075).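 Also: affinity for DCLK1 (listed as DCAMKL1) measured as one member of a kinome-wide kinase profiling panel.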
Experiment [24] has as its target Serine/threonine-protein kinase MRCK alpha (Homo sapiens, UniProt Q5VT25).
The target of a further experiment is Insulin receptor (Homo sapiens, UniProt P06213).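 Also: insulin receptor kinase tested as one member of a kinome-wide kinase panel.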
The target of experiment [25] is Cyclin-dependent kinase 5 (Homo sapiens, UniProt Q00535).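 Also: CDK5 measured as one member of a kinase profiling panel.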
The target of experiment [26] is Serine/threonine-protein kinase PLK1 (Homo sapiens, UniProt P53350).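 Also: PLK1 measured as one member of a kinome-wide profiling panel.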
For experiment [27], the target named is T1, Microphthalmia-associated transcription factor (Homo sapiens, UniProt O75030).
T1 sequence (O75030 whole entry): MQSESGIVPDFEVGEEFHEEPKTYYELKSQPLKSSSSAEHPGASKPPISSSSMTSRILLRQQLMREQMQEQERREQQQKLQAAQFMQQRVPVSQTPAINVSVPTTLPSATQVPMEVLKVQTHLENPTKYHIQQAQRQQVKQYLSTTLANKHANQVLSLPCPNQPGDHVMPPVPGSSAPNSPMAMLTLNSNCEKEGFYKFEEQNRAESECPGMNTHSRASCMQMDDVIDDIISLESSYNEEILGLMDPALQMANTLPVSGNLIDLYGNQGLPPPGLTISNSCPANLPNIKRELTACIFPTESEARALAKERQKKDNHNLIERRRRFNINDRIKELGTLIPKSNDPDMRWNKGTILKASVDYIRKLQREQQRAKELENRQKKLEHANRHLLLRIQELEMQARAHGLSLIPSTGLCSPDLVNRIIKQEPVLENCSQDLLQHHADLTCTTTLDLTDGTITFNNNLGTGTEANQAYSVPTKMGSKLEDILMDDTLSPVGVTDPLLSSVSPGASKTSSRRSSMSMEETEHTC
The experiment can be described thus: reducers of TRPM1 reporter luminescence, concentration series – cell-based, SK-MEL-5, cherry-picked, set 3, MITF inhibitor project, dose response (AID 493073).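 Also: SK-MEL-5 melanoma cells with luciferase driven by the MITF target TRPM1 promoter.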

Molecules are shown by their SMILES. Calls of active or inactive are those of the source. Some results are limits rather than exact numbers.

Chain of Protein kinase C delta type (Q05655 whole entry): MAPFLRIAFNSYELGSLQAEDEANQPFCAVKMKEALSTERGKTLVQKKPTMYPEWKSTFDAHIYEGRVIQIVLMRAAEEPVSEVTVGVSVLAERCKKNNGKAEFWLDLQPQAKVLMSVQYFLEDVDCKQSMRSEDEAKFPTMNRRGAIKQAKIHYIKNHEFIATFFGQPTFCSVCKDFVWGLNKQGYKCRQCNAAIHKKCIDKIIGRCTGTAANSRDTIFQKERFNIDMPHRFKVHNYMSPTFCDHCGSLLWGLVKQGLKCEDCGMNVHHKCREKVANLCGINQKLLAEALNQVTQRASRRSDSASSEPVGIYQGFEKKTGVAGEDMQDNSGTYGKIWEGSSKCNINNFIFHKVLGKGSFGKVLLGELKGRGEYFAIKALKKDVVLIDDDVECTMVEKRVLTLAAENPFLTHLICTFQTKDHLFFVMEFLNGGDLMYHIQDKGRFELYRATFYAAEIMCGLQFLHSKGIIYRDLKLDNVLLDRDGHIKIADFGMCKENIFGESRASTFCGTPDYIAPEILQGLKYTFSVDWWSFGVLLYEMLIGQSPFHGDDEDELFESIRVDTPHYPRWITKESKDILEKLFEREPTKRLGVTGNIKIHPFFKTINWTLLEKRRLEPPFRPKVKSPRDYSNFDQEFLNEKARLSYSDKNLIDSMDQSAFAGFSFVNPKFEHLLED
Chain of Casein kinase I isoform gamma-1 (Q9HCP0 whole entry, canonical isoform): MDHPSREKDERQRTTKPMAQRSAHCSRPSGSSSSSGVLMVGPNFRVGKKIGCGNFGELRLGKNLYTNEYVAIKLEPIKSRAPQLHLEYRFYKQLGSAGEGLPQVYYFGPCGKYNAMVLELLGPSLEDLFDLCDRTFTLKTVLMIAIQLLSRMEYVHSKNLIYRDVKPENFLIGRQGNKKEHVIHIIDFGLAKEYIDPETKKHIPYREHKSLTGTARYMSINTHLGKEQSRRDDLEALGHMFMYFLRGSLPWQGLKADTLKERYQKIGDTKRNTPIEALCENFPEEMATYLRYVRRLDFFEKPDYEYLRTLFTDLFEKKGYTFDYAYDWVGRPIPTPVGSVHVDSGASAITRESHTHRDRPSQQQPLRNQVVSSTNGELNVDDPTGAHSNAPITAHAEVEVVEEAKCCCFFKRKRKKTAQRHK
Chain of Cyclin-dependent kinase 5 (Q00535 whole entry): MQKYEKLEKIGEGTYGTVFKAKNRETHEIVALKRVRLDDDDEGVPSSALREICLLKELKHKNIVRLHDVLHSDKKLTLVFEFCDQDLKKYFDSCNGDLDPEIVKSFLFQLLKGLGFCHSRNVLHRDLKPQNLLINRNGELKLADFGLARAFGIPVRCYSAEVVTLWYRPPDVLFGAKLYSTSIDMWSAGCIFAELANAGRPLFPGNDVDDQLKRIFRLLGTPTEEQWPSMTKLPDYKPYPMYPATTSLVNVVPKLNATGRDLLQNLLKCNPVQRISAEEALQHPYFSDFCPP
Chain of Serine/threonine-protein kinase DCLK1 (O15075 whole entry): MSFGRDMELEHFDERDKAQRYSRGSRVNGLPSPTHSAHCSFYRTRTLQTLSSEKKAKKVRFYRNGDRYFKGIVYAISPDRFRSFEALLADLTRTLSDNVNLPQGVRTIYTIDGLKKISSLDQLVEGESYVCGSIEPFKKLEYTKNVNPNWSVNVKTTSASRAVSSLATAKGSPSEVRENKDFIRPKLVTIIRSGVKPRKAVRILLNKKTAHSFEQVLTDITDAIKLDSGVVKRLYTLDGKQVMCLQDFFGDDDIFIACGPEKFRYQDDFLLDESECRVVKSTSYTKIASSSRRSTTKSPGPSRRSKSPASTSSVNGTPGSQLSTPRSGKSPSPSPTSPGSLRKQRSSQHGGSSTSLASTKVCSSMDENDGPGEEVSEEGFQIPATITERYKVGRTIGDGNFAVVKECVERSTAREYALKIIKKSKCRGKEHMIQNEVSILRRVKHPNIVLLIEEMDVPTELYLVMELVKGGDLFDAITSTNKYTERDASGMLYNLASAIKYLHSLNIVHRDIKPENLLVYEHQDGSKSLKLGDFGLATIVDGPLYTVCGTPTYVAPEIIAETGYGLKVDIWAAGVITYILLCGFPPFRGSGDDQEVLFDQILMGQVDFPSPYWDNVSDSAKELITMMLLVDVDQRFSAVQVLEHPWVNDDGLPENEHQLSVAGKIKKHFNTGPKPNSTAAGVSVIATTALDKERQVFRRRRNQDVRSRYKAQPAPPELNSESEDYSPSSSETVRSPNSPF
Chain of 3-phosphoinositide-dependent protein kinase 1 (O15530 whole entry): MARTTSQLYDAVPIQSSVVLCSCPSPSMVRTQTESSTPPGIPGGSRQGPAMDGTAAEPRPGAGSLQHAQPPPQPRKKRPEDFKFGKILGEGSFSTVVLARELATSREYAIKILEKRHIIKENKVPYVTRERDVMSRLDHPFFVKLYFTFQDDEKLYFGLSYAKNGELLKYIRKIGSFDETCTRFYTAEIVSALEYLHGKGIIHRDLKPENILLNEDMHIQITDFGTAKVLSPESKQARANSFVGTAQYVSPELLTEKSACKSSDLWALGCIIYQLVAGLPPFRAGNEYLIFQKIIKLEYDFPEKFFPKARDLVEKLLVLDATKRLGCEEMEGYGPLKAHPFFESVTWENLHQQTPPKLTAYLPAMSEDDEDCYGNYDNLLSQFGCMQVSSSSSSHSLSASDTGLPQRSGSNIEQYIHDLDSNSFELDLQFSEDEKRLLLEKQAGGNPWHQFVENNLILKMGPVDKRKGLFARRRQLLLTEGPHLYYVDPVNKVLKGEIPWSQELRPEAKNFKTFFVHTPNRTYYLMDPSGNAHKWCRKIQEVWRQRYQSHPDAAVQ
Chain of Ribosomal protein S6 kinase beta-1 (P23443 whole entry): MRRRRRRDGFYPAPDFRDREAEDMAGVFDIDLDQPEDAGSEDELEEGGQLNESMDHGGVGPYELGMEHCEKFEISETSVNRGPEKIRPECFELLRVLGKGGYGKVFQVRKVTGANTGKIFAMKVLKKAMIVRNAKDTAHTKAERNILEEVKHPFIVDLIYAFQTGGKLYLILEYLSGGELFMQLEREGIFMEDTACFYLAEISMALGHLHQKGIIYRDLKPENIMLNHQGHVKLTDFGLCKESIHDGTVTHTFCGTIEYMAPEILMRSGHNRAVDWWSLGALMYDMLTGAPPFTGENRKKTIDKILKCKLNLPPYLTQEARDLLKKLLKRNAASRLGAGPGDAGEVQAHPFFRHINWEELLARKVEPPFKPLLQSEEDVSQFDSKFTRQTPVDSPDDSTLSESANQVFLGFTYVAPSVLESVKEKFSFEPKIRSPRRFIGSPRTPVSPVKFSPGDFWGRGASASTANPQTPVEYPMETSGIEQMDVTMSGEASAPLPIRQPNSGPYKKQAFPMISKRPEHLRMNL
Chain of Serine/threonine-protein kinase PAK 4 (O96013 whole entry, canonical isoform): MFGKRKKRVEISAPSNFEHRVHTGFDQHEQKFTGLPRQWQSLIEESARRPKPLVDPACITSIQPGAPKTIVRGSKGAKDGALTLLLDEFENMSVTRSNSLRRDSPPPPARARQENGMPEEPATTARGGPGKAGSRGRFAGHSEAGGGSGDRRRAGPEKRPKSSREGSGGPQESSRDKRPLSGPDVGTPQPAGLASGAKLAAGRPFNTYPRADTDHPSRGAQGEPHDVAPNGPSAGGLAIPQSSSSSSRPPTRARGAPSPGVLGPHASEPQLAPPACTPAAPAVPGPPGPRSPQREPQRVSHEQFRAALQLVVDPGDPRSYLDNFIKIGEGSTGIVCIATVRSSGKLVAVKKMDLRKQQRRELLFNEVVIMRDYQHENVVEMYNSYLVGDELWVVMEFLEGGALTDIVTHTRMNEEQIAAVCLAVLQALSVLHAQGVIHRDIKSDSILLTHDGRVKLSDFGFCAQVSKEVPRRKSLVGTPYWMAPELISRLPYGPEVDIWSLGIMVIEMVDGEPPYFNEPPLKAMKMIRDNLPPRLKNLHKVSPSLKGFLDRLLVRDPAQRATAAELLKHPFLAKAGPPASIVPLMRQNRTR
Chain of Casein kinase II subunit alpha (P68400 whole entry): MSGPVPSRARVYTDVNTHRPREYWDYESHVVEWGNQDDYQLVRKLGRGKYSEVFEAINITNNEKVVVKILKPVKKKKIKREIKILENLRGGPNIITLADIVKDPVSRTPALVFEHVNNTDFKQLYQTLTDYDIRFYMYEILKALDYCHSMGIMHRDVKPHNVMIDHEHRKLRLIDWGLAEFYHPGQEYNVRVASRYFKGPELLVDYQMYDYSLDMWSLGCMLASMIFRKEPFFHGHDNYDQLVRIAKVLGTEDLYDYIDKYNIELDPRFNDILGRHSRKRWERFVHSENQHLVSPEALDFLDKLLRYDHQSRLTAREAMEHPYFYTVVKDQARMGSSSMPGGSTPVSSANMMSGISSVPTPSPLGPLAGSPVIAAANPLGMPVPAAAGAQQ

A word on the Ki: it is a measure of affinity in units of concentration, obtained from inhibition or displacement. For `COc1cc2c(cc1F)C(c1ccccc1Cl)=Nc1c(n[nH]c1C)N2` [RG-1530], the Ki was 0.126 µM (active) in experiment [1]; > 7.94 µM (inactive) in experiment [2]; > 2 µM (inactive) in experiment [3]; 3.16 µM (active) in [4]; > 10 µM (inactive) in [5]; > 6.31 µM (inactive) in experiment [6]. The inhibition constant Ki at SRSF protein kinase 1 is 3.16 µM (active); in [7], 0.2 µM (active); in experiment [8], 2.51 µM (active); in experiment [9] it was 0.0794 µM (active); in [10], > 6.31 µM (inactive); in [11] it was 0.126 µM (active). In addition, the Ki is > 2.51 µM (inactive) in [12]; 3.98 µM (active) in experiment [13]; > 1.58 µM (inactive) in experiment [14]; 0.0794 µM (active) in [15]; > 10 µM (inactive) in [16]; > 1.26 µM (inactive) in experiment [17]. Also, the Ki in [18] was > 6.31 µM (inactive); in [19] it was 1.26 µM (active); in [20], 0.316 µM (active); in experiment [21], > 7.94 µM (inactive); in experiment [22], 0.0501 µM (active); in experiment [23], > 10 µM (inactive). In addition, the Ki in experiment [24] was > 10 µM (inactive).
Turning to `Cc1nn(C)c2sc3c(=O)[nH]cnc3c12`, the Ki on Insulin receptor was > 50.1 µM (inactive); in experiment [25], 79.4 µM (active); in experiment [26], > 79.4 µM (inactive).
Take `Cc1ccc2nccc(NC(=O)Nc3cccc(C(F)(F)F)n3)c2c1`: the Ki in experiment [1] was > 2 µM (inactive); in experiment [2] it was > 7.94 µM (inactive); in experiment [3] it was > 2 µM (inactive); in experiment [4], > 7.94 µM (inactive); in [5], > 10 µM (inactive); in experiment [6], > 6.31 µM (inactive). In addition, the Ki was > 7.94 µM (inactive) on SRSF protein kinase 1; > 3.16 µM (inactive) in experiment [7]; 0.251 µM (active) in experiment [8]; > 5.01 µM (inactive) in experiment [9]; > 6.31 µM (inactive) in [10]; > 1.58 µM (inactive) in experiment [11]. For the same compound, the Ki in experiment [12] is > 6.31 µM (inactive); at Insulin receptor it was > 5.01 µM (inactive); in experiment [13], 5.01 µM (active); in [14] it was > 1.58 µM (inactive); in [15], 0.251 µM (active); in experiment [16] it was > 10 µM (inactive). Also, the Ki in experiment [25] was 0.316 µM (active); in experiment [17], > 2 µM (inactive); in experiment [18], > 6.31 µM (inactive); in experiment [19], > 1.58 µM (inactive); in [20], > 0.794 µM (inactive); in [21], 0.251 µM (active). Moreover, the Ki is > 3.98 µM (inactive) in [22], > 10 µM (inactive) in experiment [23], > 7.94 µM (inactive) in [26] and > 10 µM (inactive) in experiment [24].
By AC50 is commonly meant the midpoint of the concentration-response curve, whichever way the signal moves. Turning to `COC(=O)CCS(=O)(=O)c1nc(-c2ccccc2)cc(C(F)(F)F)n1`, in experiment [27], the AC50 was 5.85 µM (active).
For `Cc1c(/N=C2\C=CC(=O)c3ccccc32)c(=O)n(-c2ccccc2)n1C`, in [27], the half-maximal activity concentration (AC50) was 5.26 µM (active).
